Literature values in patent US20120309684A1, “CONJUGATES FOR DELIVERY OF BIOLOGICALLY ACTIVE COMPOUNDS” (ISIS INNOVATION LIMITED, priority 2009, published 2012).

Legend:
[1] = system: dystrophin protein; settings: seven weekly doses at 100 mg/kg, systemic intravenous
[2] = system: cardiac compared with skeletal muscle

## GGCCAAACCTCGGCTTACCTGAAAT (all phosphorodiamidate morpholino (PMO); Tested constructs carry cell-penetrating peptides (B, MSP) conjugated to PMO)
[1]
  restoration of dystrophin protein with naked PMO: moderate restoration

## ASSLNIA (Sequence for inclusion in target-delivery peptide) [MSP]
[2]
  lower binding affinity for cardiac compared with skeletal muscle: 2-3 fold
